Measurements taken from US10604509B2, “Nrf2 regulators” (GlaxoSmithKline Intellectual Property Development Limited, priority 2015, dated 2020).
pEC50: −log10 of the molar value. Structures can show the parent of a compound that is named as a salt. Where two headings read alike, the source gives them in different places.

System: NQO1 specific enzyme activity in BEAS-2B cells
Assay: BEAS-2B NQO1 MTT assay
Format: cell-based
Settings: BEAS-2B cells, 48 hours with compound, MTT readout, read-out: EC50 of NQO1 specific activity induction
Outline: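 NQO1 specific activity, an NRF2 activation marker, read kinetically as absorbance change at 570 nm for 30 min after MTT cocktail addition to crude lysates of BEAS-2B cells exposed 48 h to compound. Three-parameter fit of Delta OD/min against log concentration gives EC50; lysate portion used for Cell Titer Glo.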

| SMILES | pEC50 (Homo sapiens, BEAS-2B, 48 h) | also measured |
| --- | --- | --- |
| CC[C@@H]1CN(Cc2cc([C@H](CC(=O)O)c3ccc4c(nnn4C)c3C)ccc2C)Cc2ccccc2O1 [Example 49, (S)-3-(1,4-Dimethyl-1H-benzo[d][1,2,3]triazol-5-yl)-3-(3-(((R)-2-ethyl-2,3-dihydrobenzo[f][1,4]oxazepin-4(5H)-yl)methyl)-4-methylphenyl)propanoic Acid, Formic Acid Salt] | 6.00 to 7.00 | – |
| CCn1nnc2c(C)c([C@H](c3ccc(C)c(CN4Cc5ccccc5OC(C)(C)C4)c3)C(C)(C)C(=O)O)ccc21 (single isomer, unassigned; enantiomer b) [Example 207] | 7.00 to 8.00 | – |
| CCC1Cc2c(F)cccc2CN(Cc2cc(C(c3ccc4c(nnn4C)c3C)C(C)(C)C(=O)O)ccc2C)C1 (stereo not drawn) [Example 36, 3-(1,4-Dimethyl-1H-benzo[d][1,2,3]triazol-5-yl)-3-(3-((4-ethyl-6-fluoro-4,5-dihydro-1H-benzo[c]azepin-2(3H)-yl)methyl)-4-methylphenyl)-2,2-dimethylpropanoic acid] | 8.00 to 9.00 | – |
| CC[C@@H]1CN(Cc2cc([C@@H](c3ccc4c(nnn4C)c3C)[C@@H](C)C(=O)O)ccc2C)Cc2ccccc2O1 [Example 38, (2R,3S)-3-(1,4-dimethyl-1H-benzo[d][1,2,3]triazol-5-yl)-3-(3-(((R)-2-ethyl-2,3-dihydrobenzo[f][1,4]oxazepin-4(5H)-yl)methyl)-4-methylphenyl)-2-methylpropanoic Acid, Formic Acid Salt] | 7.00 to 8.00 | – |
| CC[C@@H]1CN(Cc2cc(C(CC(=O)O)c3ccc4c(nnn4C)c3C)ccc2C)Cc2cc(F)ccc2O1 (stereo partly drawn) [Example 78, 3-(1,4-Dimethyl-1H-benzo[d][1,2,3]triazol-5-yl)-3-(3-(((R)-2-ethyl-7-fluoro-2,3-dihydrobenzo[f][1,4]oxazepin-4(5H)-yl)methyl)-4-methylphenyl)propanoic acid, formic acid salt] | 5.00 to 6.00 | – |
| Cc1ccc(C(CC(=O)O)c2ccc3c(nnn3C)c2C)cc1CN1CCCn2cncc2C1 (stereo not drawn) [Example 92, 3-(3-((6,7-Dihydro-5H-imidazo[1,5-a][1,4]diazepin-8(9H)-yl)methyl)-4-methylphenyl)-3-(1,4-dimethyl-1H-benzo[d][1,2,3]triazol-5-yl)propanoic acid, Sodium salt] | 5.00 to 6.00 | – |
| CC[C@@H]1CN(Cc2cc(C(CC(=O)O)c3cc(OC)c4c(nnn4C)c3C)ccc2C)Cc2ccccc2O1 (stereo partly drawn) [Example 45, 3-(3-(((R)-2-Ethyl-2,3-dihydrobenzo[f][1,4]oxazepin-4(5H)-yl)methyl)-4-methylphenyl)-3-(7-methoxy-1,4-dimethyl-1H-benzo[d][1,2,3]triazol-5-yl)propanoic Acid, Formic Acid Salt] | 6.00 to 7.00 | – |
| Cc1ccc(C2(C)CN(Cc3cc(C(CC(=O)O)c4ccc5c(nnn5C)c4C)ccc3C)CCO2)cc1 (stereo not drawn) [Example 18, 3-(1,4-Dimethyl-1H-benzo[d][1,2,3]triazol-5-yl)-3-(4-methyl-3-((2-methyl-2-(p-tolyl)morpholino)methyl)phenyl)propanoic Acid, Formic Acid Salt] | 5.00 to 6.00 | – |
| COc1ccc2c(c1)OC(C)(C)CN(Cc1cc([C@@H](CC(=O)O)c3ccc4c(nnn4C)c3C)ccc1C)C2 [Example 167, (R)-3-(1,4-Dimethyl-1H-benzo[d][1,2,3]triazol-5-yl)-3-(3-((8-methoxy-2,2-dimethyl-2,3-dihydrobenzo[f][1,4]oxazepin-4(5H)-yl)methyl)-4-methylphenyl)propanoic acid] | 7.00 to 8.00 | – |
| Cc1ccc(C(c2ccc3c(nnn3C)c2C)C(C)(C)C(=O)O)cc1CN1CCCC(n2cccn2)C1 (stereo not drawn) [Example 162, 3-(3-((3-(1H-Pyrazol-1-yl)piperidin-1-yl)methyl)-4-methylphenyl)-3-(1,4-dimethyl-1H-benzo[d][1,2,3]triazol-5-yl)-2,2-dimethylpropanoic Acid] | 6.00 to 7.00 | – |
| CC[C@@H]1CN(Cc2cc(C(CCc3cn(CC)nn3)C(C)C(=O)O)ccc2C)Cc2ccccc2O1 (single isomer, unassigned; isomer 3) [Example 120] | – | pEC50: 8.00 to 9.00 |
| Cc1ccc(C(CC(=O)O)c2ccc3c(nnn3C)c2C)cc1CN(C)Cc1ccccc1Br (stereo not drawn) [Example 15, Ammonium 3-(3-(((2-bromobenzyl)(methyl)amino)methyl)-4-methylphenyl)-3-(1,4-dimethyl-1H-benzo[d][1,2,3]triazol-5-yl)propanoate] | 5.00 to 6.00 | – |
| CC[C@@H]1CN(Cc2cc(C(CCc3cn(CC)nn3)C(C)C(=O)O)ccc2C)Cc2ccccc2O1 (single isomer, unassigned; isomer 2) [Example 119] | – | pEC50: 7.00 to 8.00 |
| CCn1nnc2c(C)c([C@@H](c3ccc(C)c(CN4Cc5ccccc5OC(C)(C)C4)c3)C(C)(C)C(=O)O)ccc21 (single isomer, unassigned; enantiomer a) [Example 206] | 8.00 to 9.00 | – |
| Cc1ccc(C(CC(=O)O)c2ccc3c(nnn3C)c2C)cc1CN1CCCC(S(=O)(=O)c2ccccc2)C1 (stereo not drawn) [Example 185, 3-(1,4-Dimethyl-1H-benzo[d][1,2,3]triazol-5-yl)-3-(4-methyl-3-((3-(phenylsulfonyl)piperidin-1-yl)methyl)phenyl)propanoic Acid] | 7.00 to 8.00 | – |
| CC[C@@H]1CN(Cc2cc([C@H](c3ccc4c(nnn4CC)c3C)[C@H](C)C(=O)O)ccc2C)Cc2ccccc2O1 [Example 199, (2S,3R)-3-(3-(((R)-2-Ethyl-2,3-dihydrobenzo[f][1,4]oxazepin-4(5H)-yl)methyl)-4-methylphenyl)-3-(1-ethyl-4-methyl-1H-benzo[d][1,2,3]triazol-5-yl)-2-methylpropanoic acid] | – | pEC50: 7.00 to 8.00 |
| Cc1ccc([C@@H](c2ccc3c(nnn3C)c2C)C(C)(C)C(=O)O)cc1CN1CCC[C@H](n2cccn2)C1 [Example 183, (S)-3-(3-(((S)-3-(1H-Pyrazol-1-yl)piperidin-1-yl)methyl)-4-methylphenyl)-3-(1,4-dimethyl-1H-benzo[d][1,2,3]triazol-5-yl)-2,2-dimethylpropanoic Acid] | 7.00 to 8.00 | – |
| Cc1ccc(C(c2ccc3c(nnn3C)c2C)C(C)(C)C(=O)O)cc1Cn1ccnc1CC1CCOCC1 (stereo not drawn) [Example 145, 3-(1,4-Dimethyl-1H-benzo[d][1,2,3]triazol-5-yl)-2,2-dimethyl-3-(4-methyl-3-((2-((tetrahydro-2H-pyran-4-yl)methyl)-1H-imidazol-1-yl)methyl)phenyl) propanoic acid, trifluoroacetic acid salt] | 6.00 to 7.00 | – |
| CCC1CN(Cc2cc(C(CCc3cn(CC)nn3)CC(=O)O)ccc2C)Cc2ccccc2O1 (stereo not drawn) [Example 4, 5-(1-Ethyl-1H-1,2,3-triazol-4-yl)-3-(3-((2-ethyl-2,3-dihydrobenzo[f][1,4]oxazepin-4(5H)-yl)methyl)-4-methylphenyl)pentanoic Acid, Trifluoroacetic Acid Salt] | 5.00 to 6.00 | – |
| CC[C@@H]1CN(Cc2cc([C@H](CC(=O)O)c3ccc4c(nnn4C)c3C)ccc2C)Cc2ncccc2O1 [Example 258, (S)-3-(1,4-dimethyl-1H-benzo[d][1,2,3]triazol-5-yl)-3-(3-(((R)-2-ethyl-2.3-dihydropyrido[2,3-f][1,4]oxazepin-4(5H)-yl)methyl)-4-methylphenyl)propionic Acid] | – | pEC50 (Homo sapiens): 7.00 to 8.00 |
| CCn1nnc2c(Cl)c([C@H](CC(=O)O)c3ccc(C)c(CN4Cc5ccccc5OC(C)(C)C4)c3)ccc21 [Example 55, (R)-3-(4-Chloro-1-ethyl-1H-benzo[d][1,2,3]triazol-5-yl)-3-(3-((2,2-dimethyl-2,3-dihydrobenzo[f][1,4]oxazepin-4(5H)-yl)methyl)-4-methylphenyl)propanoate, Sodium salt] | 7.00 to 8.00 | – |
| CC[C@@H]1CN(Cc2cc(C(CC(=O)O)c3ccc4c(nnn4C)c3C)ccc2C)Cc2ccc(F)cc2O1 (stereo partly drawn) [Example 75, 3-(1,4-Dimethyl-1H-benzo[d][1,2,3]triazol-5-yl)-3-(3-(((R)-2-ethyl-8-fluoro-2,3-dihydrobenzo[f][1,4]oxazepin-4(5H)-yl)methyl)-4-methylphenyl)propanoic Acid, Formic Acid Salt] | 6.00 to 7.00 | – |
| CC[C@@H]1CN(Cc2cc(C(CC(=O)O)c3ccc4c(nnn4C)c3C)ccc2C)Cc2cc(C)ccc2O1 (stereo partly drawn) [Example 81, Ammonium 3-(1,4-dimethyl-1H-benzo[d][1,2,3]triazol-5-yl)-3-(3-(((R)-2-ethyl-7-methyl-2,3-dihydrobenzo[f][1,4]oxazepin-4(5H)-yl)methyl)-4-methylphenyl)propanate] | 7.00 to 8.00 | – |
| CC[C@@H]1CN(Cc2cc([C@H](CC(=O)O)c3ccc4c(nnn4CC)c3F)ccc2C)Cc2cnccc2O1 [Example 53, (S)-3-(3-(((R)-2-Ethyl-2,3-dihydropyrido[3,4-f][1,4]oxazepin-4(5H)-yl)methyl)-4-methylphenyl)-3-(1-ethyl-4-fluoro-1H-benzo[d][1,2,3]triazol-5-yl)propanoic acid] | 6.00 to 7.00 | – |
| Cc1ccc([C@H](c2ccc3c(nnn3C)c2C)[C@H](C)C(=O)O)cc1CN1Cc2cnccc2OC(C)(C)C1 [Example 198, (2S,3R)-3-(1,4-Dimethyl-1H-benzo[d][1,2,3]triazol-5-yl)-3-(3-((2,2-dimethyl-2,3-dihydropyrido[3,4-f][1,4]oxazepin-4(5H)-yl)methyl)-4-methylphenyl)-2-methylpropanoic acid, 0.1 formic acid salt] | 7.00 to 8.00 | – |
| Cc1ccc(C(CC(=O)O)c2ccc3c(nnn3C)c2C)cc1CN1CCCC(S(=O)(=O)C2CCCCC2)C1 (stereo not drawn) [compound 186, 3-(3-((3-(Cyclohexylsulfonyl)piperidin-1-yl)methyl)-4-methylphenyl)-3-(1,4-dimethyl-1H-benzo[d][1,2,3]triazol-5-yl)propanoic acid] | 6.00 to 7.00 | – |
| Cc1ccc(C(CC(=O)O)c2ccc3c(nnn3C)c2C)cc1CN1Cc2cc(C#N)ccc2OC(C)(C)C1 (single isomer, unassigned) [Example 172] | – | pEC50: 7.00 to 8.00 |
